Source: patent US10604489B2, “Compounds for the treatment of pain” (priority 2018, dated 2020)
Where two headings read alike, the source gives them in different places.

Key:
[1] = tested on: Male Sprague-Dawley rats; assay: animal or person; format: in vivo, rat
[2] = tested on: Male Sprague-Dawley rats; settings: rat
[3] = biological target: T1, human μ opioid receptor (Homo sapiens (Human), UniProt P35372); assay: Functional activity ([35S]GTPγS binding); format: biochemical; settings: [35S]GTPγS 0.080 nM, CHO cell membranes, 60 min at 30° C., filtration
In short: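 Membranes from stably transfected CHO cells (7.5 μg) incubated with 12 test-compound concentrations and 0.080 nM [35S]GTPγS in 50 mM Tris-HCl pH 7.4, 3 mM MgCl2, 0.2 mM EGTA, 3 μM GDP, 100 mM NaCl, 60 min at 30° C. Nonspecific binding defined with 10 μM GTPγS; bound label collected by filtration and scintillation counting.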

[4] = biological target: μ-receptor (Homo sapiens (Human), UniProt P35372); assay: Receptor binding, competitive displacement of [3H]DAMGO; settings: 0.25 nM [3H]DAMGO, CHO cell membrane protein, 60 min at 25° C.
In short: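 Ki derived via Cheng-Prusoff from IC50 (log-probit fit) of displacement of 0.25 nM [3H]DAMGO, 12 concentrations, from human μ-receptor in CHO cell membranes. Binding: 50 mM Tris-HCl pH 7.5, 25 °C, 60 min, 10 μM naloxone defining nonspecific, filter-bound radioactivity counted.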

[5] = biological target: T1, human μ opioid receptor; assay: Alternate functional activity ([35S]GTPγS binding) assay, SPA beads; format: biochemical; settings: alternate assay: [35S]GTPγS 0.020 nM, CHO cell membranes with WGA PVT SPA beads
Procedure: The [^35S]GTPγS assay measures the functional properties of a compound by quantifying the level of G-protein activation following agonist binding in studies using stably transfected cells, and is considered to be a measure of the efficacy of a compound. Membranes from CHO (Chinese Hamster Ovary) cells that stably expressed one type of the cloned human opioid receptor human were used in the experiments. The assay buffer consisted of 50 mM Tris-HCl, pH 7.4, 3 mM MgCl2, 0.2 mM EGTA, 5 μM GDP, and 100 mM NaCl. CHO cell membranes stably expressing the human p opioid receptor were pre-incubated with scintillation proximity assay beads from PerkinElmer® (WGA PVT SPA) for 30 minutes, at 8 µg membrane and […] beads in a volume of 0.1 mL per reaction. In a final volume of 0.2 mL, 11 different concentrations of each test compound were incubated with the membrane-SPA bead mixture and a final concentration of 0.020 nM [35S]GTPγS for 1.5 hours with gentle shaking. Reactions were then incubated for 5 hours. Data are the mean EC50 values ±S.E.M. EC50 values (nM) for compounds 12, 16, 19, 20, 149, 151, 152, 157, 160, 161, 164-169, 172, 173, 180-197, and 199-207 are shown in Table 1.

[6] = sc, minimum dose at which maximal reversal of hind paw weight bearing (50±0.5%) was achieved, subcutaneous administration, rat, read-out: MEMD SC CFA
[7] = maximum pCO2 within 2 hours of administration, dose 10× CFA MEMD, subcutaneous
[8] = maximum pCO2 within 2 hours of administration, dose 100× CFA MEMD, subcutaneous
[9] = po, minimum dose at which maximal reversal of hind paw weight bearing was achieved, dosed orally, rat, read-out: MEMD SC CFA
[10] = Rattus norvegicus, sc, read-out: MEMD SC CFA (mg/kg)

SMILES | minimal effective dose [1, 6] [mg/kg] | <60 mmHg @ 10X CFA MEMD [2, 7] | <60 mmHg @ 100X CFA MEMD [2, 8] | EC50 [3] [nM] | Ki [4] [nM] | other results
COC[C@H](C)N1CC2CCCC(C1)C2(OC)c1ccnc(C(N)=O)c1.Cl (single isomer, unassigned) [Compound 61] | 0.3 | + (resulted in a maximum pCO2 value of less than 60 mmHg within 2 hours of administration) | + (resulted in a maximum pCO2 value of less than 60 mmHg within 2 hours of administration) | – | – | –
COC1(c2cccc(C(N)=O)c2)C2CCCC1CN([C@H]1CCCOC1)C2.Cl (single isomer, unassigned) [Compound 140] | 0.1 | + (resulted in a maximum pCO2 value of less than 60 mmHg within 2 hours of administration) | – | – | – | –
COC1(c2cccc(C(N)=O)c2)C2CCCC1CN(CC1CC1)C2.Cl [Compound 22, 3-((1R,5S,9r)-3-(cyclopropylmethyl)-9-methoxy-3-azabicyclo[3.3.1]nonan-9-yl)benzamide hydrochloride] | 0.1 | + (resulted in a maximum pCO2 value of less than 60 mmHg within 2 hours of administration) | − (resulted in a maximum pCO2 value of greater than 60 mmHg within 2 hours of administration) | < 10 | < 1 | –
COC1(c2cccc(C(N)=O)c2)C2CCCC1CN(C)C2.Cl [Compound 23, 3-((1R,5S,9r)-9-methoxy-3-methyl-3-azabicyclo[3.3.1]nonan-9-yl)benzamide hydrochloride] | 0.1 | + (resulted in a maximum pCO2 value of less than 60 mmHg within 2 hours of administration) | + (resulted in a maximum pCO2 value of less than 60 mmHg within 2 hours of administration) | < 10 | < 1 | –
COC1(c2ccnc(C(N)=O)c2)C2CCCC1CN(CC1CC1)C2.Cl [Compound 27, 4-((1R,5S,9r)-3-(cyclopropylmethyl)-9-methoxy-3-azabicyclo[3.3.1]nonan-9-yl)picolinamide hydrochloride] | 0.01 | – | + (resulted in a maximum pCO2 value of less than 60 mmHg within 2 hours of administration) | 10 to 75 | 1 to 5 | –
COC1(c2ccnc(C(N)=O)c2)C2CCCC1CN(C)C2.Cl [Compound 43, 4-((1R,5S,9r)-9-methoxy-3-methyl-3-azabicyclo[3.3.1]nonan-9-yl)picolinamide hydrochloride] | 0.1 | + (resulted in a maximum pCO2 value of less than 60 mmHg within 2 hours of administration) | + (resulted in a maximum pCO2 value of less than 60 mmHg within 2 hours of administration) | 10 to 75 | < 1 | –
COC1(c2cccc(C(N)=O)c2)C2CCCC1CN(CC1(O)CC1)C2.Cl [Compound 46, 3-((1R,5S,9r)-3-((1-hydroxycyclopropyl)methyl)-9-methoxy-3-azabicyclo[3.3.1]nonan-9-yl)benzamide hydrochloride] | 1 | + (resulted in a maximum pCO2 value of less than 60 mmHg within 2 hours of administration) | – | 10 to 75 | < 1 | –
COC1(c2ccnc(C(N)=O)c2)C2CCCC1CN([C@@H]1CCCOC1)C2.Cl (stereo partly drawn) [Compound 60, 4-((1R,5S,9R)-9-methoxy-3-((R)-tetrahydro-2H-pyran-3-yl)-3-azabicyclo[3.3.1]nonan-9-yl)picolinamide hydrochloride] | 0.3 | + (resulted in a maximum pCO2 value of less than 60 mmHg within 2 hours of administration) | + (resulted in a maximum pCO2 value of less than 60 mmHg within 2 hours of administration) | > 75 | 1 to 5 | –
COC1(c2ccnc(C(N)=O)c2)C2CCCC1CNC2.Cl [Compound 70, 4-((1R,5S,9r)-9-methoxy-3-azabicyclo[3.3.1]nonan-9-yl)picolinamide hydrochloride] | 1 | + (resulted in a maximum pCO2 value of less than 60 mmHg within 2 hours of administration) | + (resulted in a maximum pCO2 value of less than 60 mmHg within 2 hours of administration) | > 75 | 1 to 5 | –
COC1(c2ccnc(C(N)=O)c2)C2CCCC1CN([C@H]1CCOC1)C2.Cl (stereo partly drawn) [Compound 79, 4-((1R,5S,9R)-9-methoxy-3-((R)-tetrahydrofuran-3-yl)-3-azabicyclo[3.3.1]nonan-9-yl)picolinamide hydrochloride] | 0.3 | + (resulted in a maximum pCO2 value of less than 60 mmHg within 2 hours of administration) | − (resulted in a maximum pCO2 value of greater than 60 mmHg within 2 hours of administration) | 10 to 75 | 1 to 5 | –
CCCN1CC2CCCC(C1)C2(OC)c1ccnc(C(N)=O)c1.Cl [Compound 91, 4-((1R,5S,9r)-9-methoxy-3-propyl-3-azabicyclo[3.3.1]nonan-9-yl)picolinamide hydrochloride] | – | – | – | 10 to 75 | 1 to 5 | minimal effective dose [1, 9]: 3 mg/kg; <60 mmHg @ 100X CFA MEMD ([2]; maximum pCO2 within 2 hours of administration, dosed at 10 mg/kg): + (dosed at 10 mg/kg) (resulted in a maximum pCO2 value of less than 60 mmHg within 2 hours of administration)
COC1(c2ccnc(C(N)=O)c2)C2CCCC1CN(C[C@@H]1C[C@@H]3C[C@@H]3C1)C2.Cl (stereo partly drawn) [Compound 104, 4-((1R,5S,9R)-3-((1R,3s,5S)-bicyclo[3.1.0]hexan-3-ylmethyl)-9-methoxy-3-azabicyclo[3.3.1]nonan-9-yl)picolinamide hydrochloride] | – | – | – | 10 to 75 | < 1 | minimal effective dose [1, 9]: ≤ 0.1 mg/kg
COCCN1CC2CCCC(C1)C2(OC)c1cccc(C(N)=O)c1.Cl [Compound 128, 3-((1R,5S,9r)-9-methoxy-3-(2-methoxyethyl)-3-azabicyclo[3.3.1]nonan-9-yl)benzamide hydrochloride] | 1 | – | – | 10 to 75 | < 1 | –
COC1(c2cccc(C(N)=O)c2)C2CCCC1CN(CCC1CC1)C2.Cl [Compound 138, 3-((1R,5S,9r)-3-(2-cyclopropylethyl)-9-methoxy-3-azabicyclo[3.3.1]nonan-9-yl)benzamide hydrochloride] | 0.3 | – | – | < 10 | < 1 | –
CO[C@@]1(c2ccnc(C(N)=O)c2)[C@@H]2CCC[C@H]1CN(Cc1ncc(C)[nH]1)C2.Cl [Compound 153, 4-((1R,5S,9r)-9-methoxy-3-((5-methyl-1H-imidazol-2-yl)methyl)-3-azabicyclo[3.3.1]nonan-9-yl)picolinamide hydrochloride] | – | – | – | 10 to 75 | < 1 | MEMD SC CFA ([1]; minimum dose at which maximal reversal of hind paw weight bearing (50±0.5%) was achieved, subcutaneous administration, rat): 1 mg/kg
COC1(c2cccc(C(N)=O)c2)C2CCCC1CN(CCc1cnn[nH]1)C2.Cl [Compound 155, 3-((1R,5S,9r)-3-(2-(1H-1,2,3-triazol-4-yl)ethyl)-9-methoxy-3-azabicyclo[3.3.1]nonan-9-yl)benzamide hydrochloride] | 1 | – | – | < 10 | < 1 | –
CCOC1(c2ccnc(C(N)=O)c2)C2CCCC1CNC2 (centres unmarked) [Compound 161] | 0.3 | – | – | – | – | EC50 [5]: 10 to 75 nM
COC1(c2cccc(C(N)=O)c2)C2CCCC1CN(C[C@H]1[C@@H]3COC[C@@H]31)C2.Cl (some centres unmarked) [Compound 176] | 0.1 | – | – | < 10 | < 1 | –
CN1CC[C@]23c4c5ccc(O)c4O[C@H]2[C@@H](O)C=C[C@H]3[C@H]1C5 [Morphine, reference compound] | – | – | – | – | – | minimal effective dose [1, 10]: 3 mg/kg; <60 mmHg @ 10X CFA MEMD ([2]; in vivo, sc): − (key: −: resulted in a maximum pCO2 value of greater than 60 mmHg within 2 hours of administration; +: resulted in a maximum pCO2 value of less than 60 mmHg within 2 hours of administration)
COc1ccc2c3c1O[C@H]1C(=O)CC[C@@]4(O)[C@@H](C2)N(C)CC[C@]314 [Oxycodone, reference compound] | – | – | – | – | – | minimal effective dose [1, 10]: 3 mg/kg; <60 mmHg @ 10X CFA MEMD ([2]; in vivo, sc): − (key: −: resulted in a maximum pCO2 value of greater than 60 mmHg within 2 hours of administration; +: resulted in a maximum pCO2 value of less than 60 mmHg within 2 hours of administration)
